Source: patent US8173638B2 (Boehringer Ingelheim International GmbH, priority 2006, dated 2012)

Target: T1, human CB2R (Homo sapiens, UniProt P34972)
T1 construct: host or cells: CHO cells
Assay: CB2R mediated modulation of cAMP synthesis
Assay type: cell-based
Conditions: not given
Procedure, shortened: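 CHO cells expressing human CB2R treated with compound 30 min at 37 °C in buffer with 1 mM IBMX, 0.25% BSA and 10 uM forskolin. cAMP measured after lysis by DiscoverX-XS kit.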

T1 sequence (P34972 whole entry): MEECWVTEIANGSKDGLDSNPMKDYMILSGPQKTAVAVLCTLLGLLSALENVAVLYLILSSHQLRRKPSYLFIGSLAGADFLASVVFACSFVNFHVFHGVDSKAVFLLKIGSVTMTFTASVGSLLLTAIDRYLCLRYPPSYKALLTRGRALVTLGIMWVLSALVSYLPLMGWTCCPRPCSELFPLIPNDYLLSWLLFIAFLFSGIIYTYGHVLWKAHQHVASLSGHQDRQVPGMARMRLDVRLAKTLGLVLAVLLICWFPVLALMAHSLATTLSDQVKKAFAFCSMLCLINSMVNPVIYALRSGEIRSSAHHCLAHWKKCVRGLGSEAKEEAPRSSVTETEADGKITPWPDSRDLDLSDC

Q: Which EC50 does the source give for `CC(C)(C)c1cc(NC(=O)N2CCCN(C(=O)CC3CCCC3)CC2)no1` [Compound 140, 4-(2-Cyclopentyl-acetyl)-[1,4]diazepane-1-carboxylic acid (5-tert-butyl-isoxazol-3-yl)-amide] here?
A: 12 nM

Same assay, conditions: 0.5 h; CHO cells expressing human CB2R; cAMP inhibited by 1 uM CP55940 defined as 100%; read-out: Agonist Efficacy (%)

Q: Which Emax does the source give for `O=C(Nc1ccc(C(F)(F)F)cc1)N1CCCN(C(=O)C2CCCCC2)CC1` [Compound 128, 4-Cyclohexanecarbonyl-[1,4]diazepane-1-carboxylic acid (4-trifluoromethyl-phenyl)-amide] here?
A: 107%

Q: Which Emax does the source give for `CC(C)c1ccc(NC(=O)N2CCCN(C(=O)C3CCCCC3)CC2)cc1` [Compound 34, 4-Cyclohexanecarbonyl-[1,4]diazepane-1-carboxylic acid (4-isopropyl-phenyl)-amide] here?
A: 102%

Q: With `O=C(Nc1ccc(SC(F)(F)F)cc1)N1CCCN(C(=O)C2CCOCC2)CC1` [Compound 81, 4-(Tetrahydro-pyran-4-carbonyl)-[1,4]diazepane-1-carboxylic acid (4-trifluoromethylsulfanyl-phenyl)-amide] as the molecule, how does the Emax read?
A: 96%

Q: Which Emax does the source give for `O=C(Nc1ccc(C(F)(F)F)cc1)N1CCCN(C(=O)C2CCC(F)(F)CC2)CC1` [Compound 78, 4-(4,4-Difluoro-cyclohexanecarbonyl)-[1,4]diazepane-1-carboxylic acid (4-trifluoromethyl-phenyl)-amide] here?
A: 87%

Same assay, conditions: CHO, 0.5 h, read-out: Agonist Efficacy (%)

Q: `CC(C)(C)c1cc(NC(=O)N2CCCN(C(=O)CC3CCCC3)CC2)no1` [Compound 140, 4-(2-Cyclopentyl-acetyl)-[1,4]diazepane-1-carboxylic acid (5-tert-butyl-isoxazol-3-yl)-amide] was tested. Which Emax did it give?
A: 103%

Same assay, conditions: found through the use of the described assays (CB2 agonists); qualitative statement

Q: With `CC(C)(C)c1cc(NC(=O)N2CCCN(C(=O)C3CCN(S(C)(=O)=O)CC3)CC2)no1` [4-(1-Methanesulfonyl-piperidine-4-carbonyl)-[1,4]diazepane-1-carboxylic acid (5-tert-butyl-isoxazol-3-yl)-amide] as the molecule, how does the agonistic activity read?
A: agonistic activity

Q: How did the agonistic activity turn out when `Cn1nc(-c2ccccc2)cc1NC(=O)N1CCCN(C(=O)C2CCOCC2)CC1` [4-(Tetrahydro-pyran-4-carbonyl)-[1,4]diazepane-1-carboxylic acid (2-methyl-5-phenyl-2H-pyrazol-3-yl)-amide] was run?
A: agonistic activity

Q: How did the agonistic activity turn out when `CC(C)(C)c1cc(NC(=O)N2CCCN(C(=O)C3CCCCC3)CC2)no1` [4-Cyclohexanecarbonyl-[1,4]diazepane-1-carboxylic acid (5-tert-butyl-isoxazol-3-yl)-amide] was run?
A: agonistic activity

Q: How did the agonistic activity turn out when `CC(C)c1cnc(NC(=O)N2CCCN(C(=O)C3CCOCC3)CC2)s1` [4-(Tetrahydro-pyran-4-carbonyl)-[1,4]diazepane-1-carboxylic acid (5-isopropyl-thiazol-2-yl)-amide] was run?
A: agonistic activity

Q: `O=C(Nc1ccc2ccccc2c1)N1CCCN(C(=O)C2CCOCC2)CC1` [4-(Tetrahydro-pyran-4-carbonyl)-[1,4]diazepane-1-carboxylic acid naphthalen-2-ylamide] was tested. Which agonistic activity did it give?
A: agonistic activity

Q: For `O=C(Nc1nc2c(s1)CCCC2)N1CCCN(C(=O)N2CCS(=O)(=O)CC2)CC1` [4-(1,1-Dioxo-1λ^6-thiomorpholine-4-carbonyl)-[1,4]diazepane-1-carboxylic acid (4,5,6,7-tetrahydro-benzothiazol-2-yl)-amide], which agonistic activity is on record?
A: agonistic activity

Q: How did the agonistic activity turn out when `CC(C)(C)c1ccc(NC(=O)N2CCCN(C(=O)CNc3ccccc3)CC2)cc1` [4-(2-Phenylamino-acetyl)-[1,4]diazepane-1-carboxylic acid (4-tert-butyl-phenyl)-amide] was run?
A: agonistic activity

Q: How did the agonistic activity turn out when `CC(C)(C)c1cc(NC(=O)N2CCCN(C(=O)NC3CCCC3)CC2)no1` was run?
A: agonistic activity

Q: Which agonistic activity does the source give for `CC(C)(C)c1cc(NC(=O)N2CCCN(C(=O)C3CCOC3)CC2)no1` (stereo not drawn) [4-(Tetrahydro-furan-3-carbonyl)-[1,4]diazepane-1-carboxylic acid (5-tert-butyl-isoxazol-3-yl)-amide] here?
A: agonistic activity

Q: How did the agonistic activity turn out when `Cc1nc(NC(=O)N2CCCN(C(=O)C3CCC(F)(F)CC3)CC2)sc1C(C)(C)C` [4-(4,4-Difluoro-cyclohexanecarbonyl)-[1,4]diazepane-1-carboxylic acid (5-tert-butyl-4-methyl-thiazol-2-yl)-amide] was run?
A: agonistic activity

Q: For `Cn1c(NC(=O)N2CCCN(C(=O)C3CCOCC3)CC2)nc2ccccc21` [4-(Tetrahydro-pyran-4-carbonyl)-[1,4]diazepane-1-carboxylic acid (1-methyl-1H-benzoimidazol-2-yl)-amide], which agonistic activity is on record?
A: agonistic activity

Q: For `O=C(Nc1ccc2ccccc2c1)N1CCCN(C(=O)C2CCCC2)CC1` [4-Cyclopentanecarbonyl-[1,4]diazepane-1-carboxylic acid naphthalen-2-ylamide], which agonistic activity is on record?
A: agonistic activity

Q: How did the agonistic activity turn out when `O=C(CCC1CCCC1)N1CCCN(C(=O)Nc2cccc3ccccc23)CC1` [4-(3-Cyclopentyl-propionyl)-[1,4]diazepane-1-carboxylic acid naphthalen-1-ylamide] was run?
A: agonistic activity

Q: For `CSc1ccc(NC(=O)N2CCCN(C(=O)CCC3CCCC3)CC2)cc1` [4-(3-Cyclopentyl-propionyl)-[1,4]diazepane-1-carboxylic acid (4-methylsulfanyl-phenyl)-amide], which agonistic activity is on record?
A: agonistic activity

Q: How did the agonistic activity turn out when `CCCC(O)c1ccc(NC(=O)N2CCCN(C(=O)CC3CCCC3)CC2)cc1` (stereo not drawn) [4-(2-Cyclopentyl-acetyl)-[1,4]diazepane-1-carboxylic acid [4-(1-hydroxy-butyl)-phenyl]-amide] was run?
A: agonistic activity

Q: How did the agonistic activity turn out when `CC(C)(C)C(=O)N1CCCN(C(=O)Nc2ccc(C(C)(C)C)cc2)CC1` [4-(2,2-Dimethyl-propionyl)-[1,4]diazepane-1-carboxylic acid (4-tert-butyl-phenyl)-amide] was run?
A: agonistic activity

Q: With `CC(C)(C)c1cnc(NC(=O)N2CCCN(C(=O)N3CCS(=O)(=O)CC3)CC2)s1` [4-(1,1-Dioxo-1λ^6-thiomorpholine-4-carbonyl)-[1,4]diazepane-1-carboxylic acid (5-tert-butyl-thiazol-2-yl)-amide] as the molecule, how does the agonistic activity read?
A: agonistic activity

Q: For `CC(C)(C)c1cc(NC(=O)N2CCCN(C(=O)C3CCC(=O)CC3)CC2)no1` [4-(4-Oxo-cyclohexanecarbonyl)-[1,4]diazepane-1-carboxylic acid (5-tert-butyl-isoxazol-3-yl)-amide], which agonistic activity is on record?
A: agonistic activity

Q: `CCCCc1ccc(NC(=O)N2CCCN(C(=O)c3ccccc3)CC2)cc1` [4-Benzoyl-[1,4]diazepane-1-carboxylic acid (4-butyl-phenyl)-amide] was tested. Which agonistic activity did it give?
A: agonistic activity

Q: `CC(C)(C)c1cc(NC(=O)N2CCCN(C(=O)N3CCOCC3)CC2)on1` [4-(Morpholine-4-carbonyl)-[1,4]diazepane-1-carboxylic acid (3-tert-butyl-isoxazol-5-yl)-amide] was tested. Which agonistic activity did it give?
A: agonistic activity

Q: With `CC(C)(C)c1ccc(NC(=O)N2CCCN(C(=O)C3CCCC3)CC2)cc1` [4-Cyclopentanecarbonyl-[1,4]diazepane-1-carboxylic acid (4-tert-butyl-phenyl)-amide] as the molecule, how does the agonistic activity read?
A: agonistic activity

Q: `CCc1ccc(NC(=O)N2CCCN(C(=O)CC3CCCC3)CC2)cc1` [4-(2-Cyclopentyl-acetyl)-[1,4]diazepane-1-carboxylic acid (4-ethyl-phenyl)-amide] was tested. Which agonistic activity did it give?
A: agonistic activity

Q: `CC(C)(C)CC(=O)N1CCCN(C(=O)Nc2ccc3ccccc3c2)CC1` [4-(3,3-Dimethyl-butyryl)-[1,4]diazepane-1-carboxylic acid naphthalen-2-ylamide] was tested. Which agonistic activity did it give?
A: agonistic activity

Same assay, conditions: read-out: hCB2 cAMP EC50

Q: How did the EC50 turn out when `O=C(Nc1ccc(C(F)(F)F)cc1)N1CCCN(C(=O)C2CCCCC2)CC1` [Compound 128, 4-Cyclohexanecarbonyl-[1,4]diazepane-1-carboxylic acid (4-trifluoromethyl-phenyl)-amide] was run?
A: 71 nM

Q: `CC(C)c1ccc(NC(=O)N2CCCN(C(=O)C3CCCCC3)CC2)cc1` [Compound 34, 4-Cyclohexanecarbonyl-[1,4]diazepane-1-carboxylic acid (4-isopropyl-phenyl)-amide] was tested. Which EC50 did it give?
A: 23 nM

Q: How did the EC50 turn out when `O=C(Nc1ccc(SC(F)(F)F)cc1)N1CCCN(C(=O)C2CCOCC2)CC1` [Compound 81, 4-(Tetrahydro-pyran-4-carbonyl)-[1,4]diazepane-1-carboxylic acid (4-trifluoromethylsulfanyl-phenyl)-amide] was run?
A: 120 nM

Q: For `O=C(Nc1ccc(C(F)(F)F)cc1)N1CCCN(C(=O)C2CCC(F)(F)CC2)CC1` [Compound 78, 4-(4,4-Difluoro-cyclohexanecarbonyl)-[1,4]diazepane-1-carboxylic acid (4-trifluoromethyl-phenyl)-amide], which EC50 is on record?
A: 71 nM
